How the values were obtained:
[1] = tested on: transient receptor potential (TRP) channels; conditions: cited from earlier work
[2] = target: T1, human CB2 (Homo sapiens, UniProt P34972); assay: Cannabinoid Receptor 2 (CB2) activity, calcium FLIPR assay in CHO-K1 cells co-expressing human CB2 and G15; conditions: FIG. 1 and FIG. 2
[3] = target: T1, human CB2; design: expressed in transfected cells; conditions: cited from earlier work

T1 sequence (P34972 whole entry): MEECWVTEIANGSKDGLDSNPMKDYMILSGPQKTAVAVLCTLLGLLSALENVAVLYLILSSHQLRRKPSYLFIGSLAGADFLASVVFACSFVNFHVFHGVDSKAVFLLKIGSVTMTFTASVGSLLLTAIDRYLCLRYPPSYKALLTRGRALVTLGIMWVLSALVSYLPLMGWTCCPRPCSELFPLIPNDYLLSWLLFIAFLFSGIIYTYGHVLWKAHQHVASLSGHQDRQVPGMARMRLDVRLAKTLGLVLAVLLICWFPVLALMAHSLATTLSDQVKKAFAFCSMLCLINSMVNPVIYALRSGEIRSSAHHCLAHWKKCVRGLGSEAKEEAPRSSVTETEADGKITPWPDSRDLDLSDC

SMILES: CCCCCc1cc(O)c2c(c1)OC(C)(CCC=C(C)C)C=C2 (stereo not shown) [CBC, cannabichromene]
- agonism at several TRP channels [1]: known agonist at several transient receptor potential (TRP) channels, albeit somewhat weakly
- agonist potency at the human CB2 receptor compared with other phytocannabinoid agonists (CBD, CBCV) [2]: more potent agonist
- potency at human CB2 receptor relative to CBD ([2]; two independent experiments): at least 4 fold

SMILES: C=C(C)[C@@H]1CCC(C)=C[C@H]1c1c(O)cc(CCCCC)cc1O [CBD, cannabidiol]
- agonism at the CB2 receptor (known) [3]: known agonist

Reference: patent US20200000766A1, “COMPOSITIONS AND METHODS FOR AGONIZING THE CB2 RECEPTOR” (priority 2018, published 2020)
